Test results published in PMC8617031, “Development of a BCL-xL and BCL-2 dual degrader with improved anti-leukemic activity,” (Nature Communications, 2021).
Several values for one entry are separate records, joined by “and”; a condition that tells them apart may be missing. Identical values can stand only once.

Legend:
Format in all cases: cell-based, human
Kasumi-1 cells = assay: Apoptosis by Annexin-V/DAPI flow cytometry in Kasumi-1 cells; conditions: Fig. 7c-e, g
Description: After treatment, cells were stained with Annexin V-FLUOS (1: 200, Cat. No. 11828681001, Roche, Little Falls, NJ, USA) at room temperature for 15 min, washed with PBS and then added DAPI (0.2 μg/mL, Cat. No. D1306, Invitrogen, Waltham, MA, USA) for apoptosis flow cytometry on Gallios (Beckman, Indianapolis, IN, USA).

Flag-BCL-2 WT or mutants = assay: Polyubiquitination assay (Flag IP, HA-Ub blot), BCL-2; conditions: 293T cells, MG132 10 µM pretreatment, 753b 1 uM, 5 h
Description: K16-only, K20-only, and K87-only represent that all the surface lysines on BCL-xL are mutated to arginines except K16, K20, and K87, respectively. Representative immunoblots of Flag-BCL-xL WT and mutants are shown in the top panel. […] K17R and K22R represents that K17 and K22 on BCL-2 are respectively mutated to arginine; K17/22R means both K17 and K22 on BCL-2 are mutated to arginine. Representative immunoblots of Flag-BCL-2 WT and mutants are shown in the top panel. The quantification of the relative Flag-BCL-xL or Flag-BCL-2 protein content in the immunoblots is presented as mean values ± s.e.m. (n = 3 biologically independent experiments) in the bottom panel. […] After 36 h, cells were pre-treated with MG132 (10 µM) for 2 h and then treated with or without 753b (0.1 µM for BCL-xL and 1 uM for BCL-2) for 5 h. The Flag-tagged proteins were immunoprecipitated (IP) and immunoblotted with HA or Flag antibody. The input results are shown in Supplementary Fig. 9. Data are a representative of two independent experiments. Source data are provided as a Source data file.
Proteins were extracted by using IP lysis buffer (Cat. No. 87788, Thermal Fisher Scientific) and IP was performed using Anti-FLAG M2 Magnetic Beads (Cat. No. M8823, Sigma-Aldrich) according to the manufacturer’s protocol. […]

[1] = test system: Flag-BCL-2 (WT and lysine mutants); assay: Degradation of Flag-BCL-2 WT and lysine mutants in transfected 293T cells; conditions: 753b-treated 293T, DMSO = 100, Fig. 5b
Description: Cells were collected, washed once with ice-cold phosphate-buffered saline, pH 7.2 (PBS, cat. no. 20012027; Thermo Fisher Scientific) and lysed in RIPA lysis buffer (Cat. No. BP-115DG, Boston Bio Products, Ashland, MA, USA) supplemented with protease and phosphatase inhibitor cocktails (Cat. No. PPC1010, Sigma-Aldrich, St. Louis, MO, USA) through sonication. The samples were centrifuged at 14,000 r.p.m. for 5 min and the supernatants were transferred into a new tube. The protein concentration in the supernatants was determined using the Pierce BCA protein Assay kit (cat. no. 23225, Thermo Fisher Scientific). The protein concentration was normalized, and the samples were reduced in 4× Laemmli’s SDS-sample buffer (cat. no. BP-110R, Boston Bio Products) and denatured at 95 °C for 5 min. An equal amount of protein samples (20–40 μg per lane) were resolved using precast 4–20% Tris-glycine gels (Mini-PROTEAN TGX, cat. no. 456–1094, Bio-Rad), and resolved proteins were transferred onto 0.2-µm pore size polyvinylidene difluoride (PVDF) blotting membranes (cat. no. LC2002, Thermo Fisher Scientific) using mini trans-blot electrophoretic transfer cell (Bio-Rad). The membranes were blocked with non-fat dry milk (5% wt/vol) in 1× Tris-buffered saline-Tween-20 (TBST, cat. no. J77500, Affymetrix) for 1 h at room temperature, and were subsequently probed with primary antibodies at a predetermined optimal concentration in non-fat dry milk (5% wt/vol in TBST) overnight at 4 °C. The membranes were washed three times (5 min each) in TBST and then incubated with horse radish peroxidase (HRP)-conjugated secondary antibodies for 1 h at room temperature. Following sufficient washing with TBST, the membranes were exposed with chemiluminescent HRP substrate (cat. no. WBKLS0500, MilliporeSigma), and the signal was detected using the ChemiDoc MP Imaging System (Bio-Rad) and quantified using the ImageJ (v1.53a) software from NIH.
Plasmids were purified on miniprep columns according to the manufacturer’s protocol (Cat. No. 27106 Qiagen, Germantown, MD, USA). The construction of Flag-BCL-xL (pDL2009) and Flag-BCL-xL-K-ko (pDL2129) were described previously. Flag-BCL-2 was a gift from Clark Distelhorst (Addgene plasmid # 18003, Watertown, MA, USA). Plasmids Flag-BCL-xL-K16-only, Flag-BCL-xL-K20-only, Flag-BCL-xL-K157-only, Flag-BCL-xL-K-ko-R34K, Flag-BCL-xL-K-ko-R102K, Flag-BCL-xL-K-ko-R132K, Flag-BCL-xL-K-ko-G186K, Flag-BCL-2-K17R, Flag-BCL-2-K22R, and Flag-BCL-2-K17/22R were constructed by using Q5® Site-Directed Mutagenesis Kit (Cat. No. E0554S, NEB, Ipswich, MA, USA) and the following primer sets. Flag-BCL-xL-K-ko (pDL2129) or Flag-BCL-2 was used as the template. […]

In the case of `Cc1ncsc1-c1ccc([C@H](C)NC(=O)[C@@H]2C[C@@H](O)CN2C(=O)[C@@H](NC(=O)CCCCCCC(=O)N2CCN(C[C@]3(C)CCC(c4ccc(Cl)cc4)=C(CN4CCN(c5ccc(C(=O)NS(=O)(=O)c6ccc(N[C@H](CCN7CCOCC7)CSc7ccccc7)c(S(=O)(=O)C(F)(F)F)c6)cc5)CC4)C3)CC2)C(C)(C)C)cc1` [753b], the “killing of Kasumi-1 cells by induction of apoptosis (in words)” value (Kasumi-1 cells) is reported as “more potent than DT2216, ABT199 (a selective BCL-2 inhibitor) and ABT263 in killing Kasumi-1 cells by induction of apoptosis”, the “polyubiquitination of BCL-2 WT and mutants (in words)” value (Flag-BCL-2 WT or mutants) is reported as “induces polyubiquitination of WT and K22R BCL-2, but not K17R and K17/22R BCL-2” and the “relative Flag-BCL-2 protein content” value ([1]; K17/22R mutant) is reported as 87 and 104 and 94. For the same compound, the “relative Flag-BCL-2 protein content” value ([1]; K17R mutant) was 83 and 90 and 96, the “relative Flag-BCL-2 protein content” value ([1]; K22R mutant) was 38 and 28 and 35 and the “relative Flag-BCL-2 protein content” value ([1]; WT Flag-BCL-2, 3 replicates) was 8 and 16 and 27.
